# US20190002942A1, “ANTIBIOTIC FIIRV 104/18 COMPLEX AND THE ISOLATED INDIVIDUAL FACTORS THEREOF” (Fondazione Istituto Insubrico di Ricerca per la Vita, priority 2015, published 2019)
# Read-outs that look alike come from different tables or passages of the source.
# What was measured:
# [1] = system: Gram-positive susceptible, resistant and multi-resistant pathogenic bacteria; experiment: Growth inhibition of Gram-positive bacteria (summary); format: cell-based; settings: Gram positive bacteria: Staphylococci incl. MRSA and MR coagulase-negative, Streptococci, Enterococci incl. VanA
# Experimental: (§1) Antimicrobial activity of the antibiotic FIIRV 104/18 complex is determined by the broth microdilution method according to the procedures published by the Clinical and Laboratory Standards Institute (CLSI), formerly the National Committee for Clinical Laboratory Standards (NCCLS) (document M07-A9). Inocula are: 2-5×10^5 CFU/mL for Gram positive and Gram negative bacteria; 10^4 CFU/mL for Candida albicans.
# (§2) The media used are: cation adjusted Mueller Hinton broth (CAMHB) for Staphylococci, Enterococci, Moraxella catarrhalis, Escherichia coli; Todd Hewitt broth (THB) for Streptococci; RPMI 1640 Medium for C. albicans. The effect of 30% bovine serum is determined under the same experimental conditions.
# (§3) Cultures are incubated at 35° C. in air. After 18-24 hours visual readings are performed and MICs determined. The MIC (Minimal Inhibitory Concentration) is defined as the lower concentration of antibiotic at which there is no visible growth. The strains used are clinical isolates or strains from American Type Culture Collection (ATCC). Individual factors of antibiotic FIIRV 104/18 are dissolved in DMSO to obtain a 1000 μg/mL stock solution, and subsequently diluted in water to obtain working solution.
# [2] = system: L2048 B. cenocepacia; experiment: MIC, broth microdilution (CLSI); format: cell-based; settings: Burkholderia cenocepacia; L2048 B. cenocepacia; read-out: MIC
# Experimental: as §1, §2, §3
# [3] = system: L49 S. pyogenes C203; experiment: MIC, broth microdilution (CLSI); format: cell-based; settings: Streptococcus pyogenes; L49 S. pyogenes C203; THB; read-out: MIC
# Experimental: (§4) Inocula are: 2-5×10^5 CFU/mL for Gram positive and Gram negative bacteria; 10^4 CFU/mL for Candida albicans.
# (§5) The effect of 30% bovine serum is determined under the same experimental conditions.
# (§6) Cultures are incubated at 35° C. in air. After 18-24 hours visual readings are performed and MICs determined. The MIC (Minimal Inhibitory Concentration) is defined as the lower concentration of antibiotic at which there is no visible growth. The strains used are clinical isolates or strains from American Type Culture Collection (ATCC).
# [4] = system: L47 E. coli, SKF 12140; experiment: MIC, broth microdilution (CLSI); format: cell-based; settings: Escherichia coli; L47 E. coli, SKF 12140; CAMHB; read-out: MIC
# Experimental: as §4, §5, §6
# [5] = system: L3030 A. baumannii; experiment: MIC, broth microdilution (CLSI); format: cell-based; settings: Acinetobacter baumannii; L3030 A. baumannii; read-out: MIC
# Experimental: as §4, §5, §6
# [6] = system: L559 E. faecalis; experiment: MIC, broth microdilution (CLSI); format: cell-based; settings: Enterococcus faecalis; L559 E. faecalis; CAMHB; read-out: MIC
# Experimental: as §4, §5, §6
# [7] = system: L1730 S. haemolyticus; experiment: MIC, broth microdilution (CLSI); format: cell-based; settings: Staphylococcus haemolyticus; L1730 S. haemolyticus; CAMHB; read-out: MIC
# Experimental: as §4, §5, §6
# [8] = system: L1400 S. aureus MRSA; experiment: MIC, broth microdilution (CLSI); format: cell-based; settings: Staphylococcus aureus; L1400 S. aureus MRSA; CAMHB; read-out: MIC
# Experimental: as §4, §5, §6
# [9] = system: L100 S. aureus ATCC 6538; experiment: MIC, broth microdilution (CLSI); format: cell-based; settings: Staphylococcus aureus, ATCC6538; L100 S. aureus ATCC 6538; CAMHB; read-out: MIC
# Experimental: as §4, §5, §6
# [10] = system: L568 E. faecium; experiment: MIC, broth microdilution (CLSI); format: cell-based; settings: Enterococcus faecium; L568 E. faecium; CAMHB; read-out: MIC
# Experimental: as §4, §5, §6
# [11] = system: L1577 S. epidermidis; experiment: MIC, broth microdilution (CLSI); format: cell-based; settings: Staphylococcus epidermidis; L1577 S. epidermidis; CAMHB; read-out: MIC
# Experimental: as §4, §5, §6
# [12] = system: L3294 M. catarrhalis; experiment: MIC, broth microdilution (CLSI); format: cell-based; settings: Moraxella catarrhalis; L3294 M. catarrhalis; CAMHB; read-out: MIC
# Experimental: as §4, §5, §6
# [13] = system: L44 S. pneumoniae; experiment: MIC, broth microdilution (CLSI); format: cell-based; settings: Streptococcus pneumoniae; L44 S. pneumoniae; THB; read-out: MIC
# Experimental: as §4, §5, §6
# [14] = system: L1729 S. haemolyticus MDR; experiment: MIC, broth microdilution (CLSI); format: cell-based; settings: Staphylococcus haemolyticus; L1729 S. haemolyticus MDR; CAMHB; read-out: MIC
# Experimental: as §4, §5, §6
# [15] = system: L560 E. faecalis VanA; experiment: MIC, broth microdilution (CLSI); format: cell-based, Enterococcus faecalis; settings: Enterococcus faecalis, L560 E. faecalis VanA, read-out: MIC
# Experimental: as §4, §5, §6
# [16] = system: L145 C. albicans; experiment: MIC, broth microdilution (CLSI); format: cell-based, Candida albicans; settings: Candida albicans; L145 C. albicans; RPMI; inoculum 10^4 CFU/mL; read-out: MIC
# Experimental: as §1, §2, §3
# [17] = system: L569 E. faecium VanA; experiment: MIC, broth microdilution (CLSI); format: cell-based, Enterococcus faecium; settings: Enterococcus faecium, L569 E. faecium VanA, read-out: MIC
# Experimental: as §4, §5, §6
# [18] = system: L819 S. aureus Smith ATCC19636; experiment: MIC, broth microdilution (CLSI); format: cell-based, Staphylococcus aureus; settings: Staphylococcus aureus, read-out: MIC
# Experimental: as §4, §5, §6
# [19] = system: HeLa cells; experiment: Inhibition of replication of HeLa cells; format: cell-based
# [20] = ATCC19636, L819 S. aureus Smith ATCC19636, CAMHB
# [21] = ATCC19636, L819 S. aureus Smith, +30% SB (bovine serum)
Compound,antibacterial activity (in words) [1],MIC [2] [µg/mL],MIC [3] [µg/mL],MIC [4] [µg/mL],MIC [5] [µg/mL],MIC [6] [µg/mL],MIC [7] [µg/mL],MIC [8] [µg/mL],MIC [9] [µg/mL],MIC [10] [µg/mL],MIC [11] [µg/mL],MIC [12] [µg/mL],MIC [13] [µg/mL],MIC [14] [µg/mL],MIC ([15]; +30% SB (bovine serum)) [µg/mL],MIC ([15]; CAMHB) [µg/mL],MIC [16] [µg/mL],MIC ([17]; +30% SB (bovine serum)) [µg/mL],MIC ([17]; CAMHB) [µg/mL],"MIC [18, 20] [µg/mL]",also measured
"COC(=O)c1c(C)cc2c(c1O)[C@]1(O)C(=O)c3cc4c(c(O)c3C(=O)[C@]1(OC)[C@H](O)C2)C(=O)C=C(NC1O[C@@H](C)[C@H](O)[C@@H](O)[C@H]1OC)C4=O (stereo partly drawn) [F683, 6R,6aS,14aR-methyl-11,6,8,14a-tetrahydroxy-11[(2S,3R,4R,5R,6S)-4,5-dihydroxy-3-methoxy-6-methyltetrahydro-2H-pyran-2-ylamino]-6a-methoxy-3-methyl-7,9,12,14-tetraoxo-5,6,6a,7,9,12,14,14a-octahydrobenzo[α]tetracene-2-carboxylate]",very high antibacterial activity,> 128,0.125,> 128,> 128,8,0.5,0.5,2,16,0.5,0.5,0.125,0.5,32,8,> 128,> 32,16,0.5,"MIC [18, 21]: 8 µg/mL"
"COC(=O)c1c(C)cc2c(c1O)[C@]1(O)C(=O)c3cc4c(c(O)c3C(=O)[C@]1(OC)[C@H](O)C2)C(=O)C=C(NC1O[C@@H](C)[C@H](OC2CC[C@H](O)C(C)O2)[C@@H](O)[C@H]1OC)C4=O (stereo partly drawn) [F797, (6R,6aS,14aR)-methyl 11-[(2S,3R,4R,5R,6S)-4-hydroxy-5-{[(2R,5S,6S)-5-hydroxy-6-methyltetrahydro-2H-pyran-2-yl]oxy}-3-methoxy-6-methyltetrahydro-2H-pyran-2-ylamino]-1,6,8,14a-tetrahydroxy-6a-methoxy-3-methyl-7,9,12,14-tetraoxo-5,6,6a,7,9,12,14,14a-octahydrobenzo[α]tetracene-2-carboxylate]",very high antibacterial activity,16,0.002,64,16,0.25,0.015,0.015,0.008,0.5,0.015,0.06,0.004,0.015,0.5,0.125,> 128,2,0.5,0.002,"cytotoxicity (in words) ([19]; HeLa cells): moderate cytotoxicity; IC50 ([19]; Homo sapiens, HeLa): 5 µg/mL; MIC [18, 21]: 0.125 µg/mL"
